Assay results from EP4745117A1, “NOVEL INDENONE DERIVATIVE AND USE THEREOF” (Amyloid Solution Inc., priority 2023, dated 2025).

Experiments:
[1] = molecular target: Tau-RD3 (Tau repeat domain 3) (Homo sapiens, UniProt P10636); assay: Tau disaggregation test by Thioflavin-T analysis; assay type: biochemical; conditions: for EC50: Tau-RD3 35 µM aggregated 24 hours, then compound 0 - 500 µM for 48 hours at 37 °C, concentration disaggregating 50 % of aggregates vs control, read-out: EC50 (µM) Tau; for disaggregation effect for tau protein aggregates: statement in words summarising the Thioflavin-T results
In short: (§1)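 Aβ1-42 (50 µM) or Tau-RD3 (35 µM) pre-aggregated 24 h at 37 °C, then incubated with compound (500 µM down to 0 µM, serial dilution) for 48 h at 37 °C. Read-out by Thioflavin-T (5 µM solution, glycine buffer pH 8.5) fluorescence, ex 450/em 485 nm. Values expressed relative to 72 h aggregated protein-only control (100%).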

[2] = system: amyloid-beta oligomers in HEK293 cells transfected with the APP E693Δ mutant plasmid; assay: Amyloid-beta oligomer change by dot blot (A11 antibody) in an amyloid-beta oligomer-overexpressing cell line; assay type: cell-based; conditions: compound 10 µM, 48 hours, dot blot of cell lysate, relative to control group (FIG. 1)
Excerpt: To observe the change in intracellular amyloid-beta oligomers, a plasmid with the APP E693Δ (Osaka mutation) mutant, which is associated with early-onset Alzheimer's disease and is known to induce intracellular amyloid-beta oligomer formation, was obtained from GenScript. This plasmid was transfected into HEK293 cells using a liposome-mediated method (Lipofectamine) to prepare a cell line that overexpresses intracellular amyloid-beta oligomers.
HEK293 cells transfected with the APP E693Δ mutant plasmid were incubated for 48 hours in a 37 °C, 5 % CO2 incubator, and then treated with the compounds prepared in 1.1, which were diluted to a concentration of 10 µM in the cell culture medium. The untransfected control group was treated with 0.1 % DMSO, the same as the compound-treated group.
The compound-treated cell lines were again incubated for 48 hours in a 37 °C, 5 % CO2 incubator and then used in the experiment.
After incubating the control and compound-treated cells from Example 2.2, a dot blot was performed using the cell lysate. A 3.5 µg sample was spotted onto a nitrocellulose membrane and air-dried, and then the membrane to which the sample was adhered was blocked with 5 % skim milk. After incubating with the amyloid oligomer antibody A11 to allow binding, the membrane was washed 4 times with TBST, and the secondary antibody was bound. The image signal was measured using a chemiluminescent substrate.
It was confirmed that the amount of amyloid-beta oligomers was reduced by each compound treatment compared to the control group.

[3] = molecular target: T1, Aβ1-42 (Homo sapiens, UniProt P05067); assay: Amyloid-beta disaggregation test by Thioflavin-T analysis; assay type: biochemical; conditions: for disaggregation effect for amyloid-beta protein aggregates: statement in words summarising the Thioflavin-T results; for EC50: Aβ1-42 50 µM aggregated 24 hours, then compound 0 - 500 µM for 48 hours at 37 °C, concentration disaggregating 50 % of aggregates vs control, read-out: EC50 (µM) Aβ
T1 construct: dissolving Aβ1-42 or Tau-RD3 (Tau repeat domain 3) monomers in DMSO
In short: as §1

Sequence of Tau-RD3 (Tau repeat domain 3) (P10636 623-653 limits assumed): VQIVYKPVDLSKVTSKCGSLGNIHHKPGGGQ
T1 sequence (P05067 672-713 limits assumed): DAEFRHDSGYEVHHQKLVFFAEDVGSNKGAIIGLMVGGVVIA

Row | SMILES | EC50 [1] [µM] | EC50 [3] [µM] | disaggregation effect for tau protein aggregates [1] | amyloid-beta oligomer reduction effect [2] | disaggregation effect for amyloid-beta protein aggregates [3]
1 | Cc1ncsc1C1=C(c2cccnc2)C(=O)c2cc(N(C)CCCc3ccccc3)ccc21 [Compound 65, 6-(methyl(3-phenylpropyl)amino)-3-(4-methylthiazol-5-yl)-2-(pyridin-3-yl)-1H-inden-1-one] | < 20 |  | remarkably excellent disaggregation effect | reduction effect | remarkably excellent disaggregation effect
2 | Cc1ncsc1C1=C(c2cccnc2)C(=O)c2cc(NC3CC3)ccc21 [Compound 63, 6-(cyclopropylamino)-3-(4-methylthiazol-5-yl)-2-(pyridin-3-yl)-1H-inden-1-one] | < 20 | < 20 | remarkably excellent disaggregation effect | reduction effect | remarkably excellent disaggregation effect
3 | Cc1ncsc1C1=C(c2cnn(C3CCN(C)CC3)c2)C(=O)c2cc(OCCCc3ccccc3)ccc21 [Compound 30, 2-(1-(1-methylpiperidin-4-yl)-1H-pyrazol-4-yl)-3-(4-methylthiazol-5-yl)-6-(3-phenylpropoxy)-1H-inden-1-one] | < 20 | < 20 |  | reduction effect | 
4 | Cc1ncsc1C1=C(c2ccc(N3CCN(C)CC3)cc2)C(=O)c2cc(N3CCN(CCO)CC3)ccc21 [Compound 74, 6-(4-(2-hydroxyethyl)piperazin-1-yl)-2-(4-(4-methylpiperazin-1-yl)phenyl)-3-(4-methylthiazol-5-yl)-1H-inden-1-one] | < 20 | < 20 |  | reduction effect | 
5 | O=C1C(C2CCCCC2)=C(c2ccccc2)c2ccccc21 [Compound 11, 2-cyclohexyl-3-phenyl-1H-inden-1-one] | > 250 | 100 to 250 |  |  | 

Now from value to compound, other results behind:

Row | EC50 [1] [µM] | EC50 [3] [µM] | SMILES | disaggregation effect for tau protein aggregates [1] | amyloid-beta oligomer reduction effect [2] | disaggregation effect for amyloid-beta protein aggregates [3]
6 | > 250 | > 250 | Cc1ncsc1C1=C(c2ccc(N3CCN(C)CC3)cc2)C(=O)c2ccccc21 [Compound 85, 2-(4-(4-methylpiperazin-1-yl)phenyl)-3-(4-methylthiazol-5-yl)-1H-inden-1-one] |  |  | 
7 | < 20 | < 20 | Cc1ccncc1C1=C(c2scnc2C)c2ccc(OCCCc3ccccc3)cc2C1=O [Compound 21, 2-(4-methylpyridin-3-yl)-3-(4-methylthiazol-5-yl)-6-(3-phenylpropoxy)-1H-inden-1-one] | remarkably excellent disaggregation effect |  | remarkably excellent disaggregation effect
8 | < 20 | < 20 | Cc1scnc1C1=C(c2cccnc2)C(=O)c2cc(OCCCc3ccncc3)ccc21 [Compound 23, 3-(5-methylthiazol-4-yl)-2-(pyridin-3-yl)-6-(3-(pyridin-4-yl)propoxy)-1H-inden-1-one] | remarkably excellent disaggregation effect |  | remarkably excellent disaggregation effect
9 | < 20 | < 20 | Cc1ncsc1C1=C(c2cnn(C)c2)C(=O)c2cc(OCCCc3ccccc3)ccc21 [Compound 28, 2-(1-methyl-1H-pyrazol-4-yl)-3-(4-methylthiazol-5-yl)-6-(3-phenylpropoxy)-1H-inden-1-one] | remarkably excellent disaggregation effect |  | remarkably excellent disaggregation effect
10 | 20 to 100 | > 250 | COc1ccc2c(c1)C(=O)C(c1cnccc1C)=C2c1scnc1C [Compound 22, 6-methoxy-2-(4-methylpyridin-3-yl)-3-(4-methylthiazol-5-yl)-1H-inden-1-one] |  |  | 
11 | < 20 | < 20 | Cc1ncsc1C1=C(c2cnn(C)n2)C(=O)c2cc(OCCCc3ccccc3)ccc21 [Compound 33, 2-(2-methyl-2H-1,2,3-triazol-4-yl)-3-(4-methylthiazol-5-yl)-6-(3-phenylpropoxy)-1H-inden-1-one] |  |  | 
